Assay results as given in patent publication US9206427B2, “Compositions, kits, and methods for the modulation of immune responses using galectin-1” (Dana-Farber Cancer Institute, Inc., priority 2007, dated 2015).
Read-outs that look alike come from different tables or passages of the source.

Assays:
[1] = test system: normal activated T-cells; assay: rGal1-induced apoptosis of activated T cells (FITC-annexin V and PI double staining); format: cell-based, human; details: activated T cells treated with rGal1 in the presence or absence of TDG; FIG. 4
Method: Activated T-cells were either untreated or treated with rGal1 in the presence or absence of TDG. Thereafter, apoptosis was assessed by FITC-annexin V and PI double staining. The histograms (left panels) are representative of 3 separate experiments that were averaged to obtain the percent positive cells in the bar graphs (right panels).
Recombinant Gal1 was obtained and purified essentially as described (Toscano et al. (2006) J Immunol 176, 6323-6332). T cells were purified as described above and simultaneously activated with anti-CD3-(0.1 μg/mL) and anti-CD28-(0.5 μg/mL) coated latex beads (Invitrogen) and treated with rGal1 (20 μM) in RPMI 1640 medium containing 10% fetal bovine serum and 1 mM β-ME alone or rGal1 and the Gal1 inhibitor, thiodigalactoside (TDG, 100 mM) (Rabinovich et al. (1999) J Exp Med 190, 385-397) or left untreated for 16 hours. Supernatants were then analyzed for IL-4, IL-5, IL-10, and IL-13 using cytometric bead array (CBA) Flex Set beads according to manufacturer's protocol (BD Biosciences, San Jose, Calif.). […] Thereafter, the PE detection reagent was added and samples were incubated for an additional 2 hours, washed and analyzed using FACS Aria Flow Cytometer (BD Biosciences). Results were captured with FACS Diva software and analyzed with the FCAP1.1 program (BD Biosciences). […]

[2] = test system: activated T cells; assay: Th2 cytokine production by rGal1-treated activated T cells (cytometric bead array); format: cell-based, human; details: anti-CD3/anti-CD28 activated T cells, rGal1 20 μM, TDG 100 mM, 16 hours; FIG. 3D
Method: Recombinant Gal1 was obtained and purified essentially as described (Toscano et al. (2006) J Immunol 176, 6323-6332). T cells were purified as described above and simultaneously activated with anti-CD3-(0.1 μg/mL) and anti-CD28-(0.5 μg/mL) coated latex beads (Invitrogen) and treated with rGal1 (20 μM) in RPMI 1640 medium containing 10% fetal bovine serum and 1 mM β-ME alone or rGal1 and the Gal1 inhibitor, thiodigalactoside (TDG, 100 mM) (Rabinovich et al. (1999) J Exp Med 190, 385-397) or left untreated for 16 hours. Supernatants were then analyzed for IL-4, IL-5, IL-10, and IL-13 using cytometric bead array (CBA) Flex Set beads according to manufacturer's protocol (BD Biosciences, San Jose, Calif.). In brief, multiplexed antibody-conjugated beads were incubated with culture supernatants or serial dilutions of cytokine standards for 1 hour. Thereafter, the PE detection reagent was added and samples were incubated for an additional 2 hours, washed and analyzed using FACS Aria Flow Cytometer (BD Biosciences). Results were captured with FACS Diva software and analyzed with the FCAP1.1 program (BD Biosciences).

[3] = test system: activated T cells; assay: Analysis of regulatory T cells (CD4+ CD25high FOXP3+) by triple-color flow cytometry; format: cell-based, human; details: activated T cells treated with rGal1 or rGal1 and TDG, 24 hours; FIG. 3E
Method: T cells were purified, activated with anti-CD3- and anti-CD28-coated latex beads and treated with rGal1, rGal1 and TDG or left untreated for 24 hours. Thereafter, cells were stained with CD4-FITC and CD25-APC, washed, fixed, permeabilized and stained with FOXP3-PE antibody or rat IgG2b isotype control as previously described (Zorn et al. (2006) Blood 108, 1571-1579) (Human Regulatory T-cell staining kit, eBioscience, San Diego, Calif.). CD4^+ CD25^high FOXP3 Treg cells were identified and quantified using Beckman Cytomics FC500 flow cytometer as previously described (Zorn et al. (2006) Blood 108, 1571-1579).

[4] = test system: Th1-dependent responses; details: cited from earlier work; for Th1-dependent responses: murine models of chronic inflammatory / autoimmune disorders
[5] = test system: activated T cells co-cultured with HD-MY-Z cells; assay: Viable T cells after co-culture with Gal1 shRNA or SCR shRNA HD-MY-Z cHL cells (Annexin-V, CD3, CD4 flow cytometry); format: cell-based, human; details: PHA-activated T cells, 6 hours co-culture, Gal1 shRNA versus SCR shRNA HD-MY-Z; FIG. 3B
Method: 1. Co-culture. Peripheral blood mononuclear cells (PBMCs) were obtained from normal blood donors by Ficoll-Hypaque (GE Healthcare) gradient centrifugation. Thereafter, T cells were purified using Pan T Cell Isolation Kit II (Miltenyi Biotec, Auburn, Calif.) and activated with 1 μg/mL PHA (Sigma-Aldrich) for 64 hours. 1×10^6 of activated T cells were then co-cultured with monolayers (3×10^6 cells) of HD-MY-Z cells expressing either scrambled shRNA or Gal1 specific shRNA for 6 hours at 37° C.
2. Analyses of viable T cells. Following co-culture, all cells were harvested and sequentially stained with CD3-PE and CD4-PE-Cy5 (Beckman Coulter, Fullerton, Calif.) followed by Annexin V-FITC and analyzed with a Beckman Cytomics FC500 flow cytometer. The numbers of viable (annexin V-) and (propidium iodide-) CD3^+ and CD4^+ T cells in Gal1 shRNA or scrambled shRNA HD-MY-Z/T-cell co-cultures were then compared.

[6] = test system: CD4+ T cells co-cultured with HD-MY-Z cells; assay: T-bet and GATA-3 expression in co-cultured CD4+ T cells (QPCR); format: cell-based, human; details: CD4+ cells after 24-48 hours co-culture, Gal1 shRNA versus SCR shRNA HD-MY-Z; FIG. 3C
Method: 3. Analyses of T-bet and GATA-3 expression in co-cultured CD4^+ T cells. After PHA-activated T-cells were co-cultured with HD-MY-Z cells expressing either scrambled shRNA or Gal1 specific shRNA for 24-48 hours, cells were collected and non-viable cells were depleted by Ficoll-Hypaque gradient centrifugation. Remaining viable cells were washed, incubated with CD4 MACS microbeads and purified using a MACS LS column according to the manufacturer's protocol (Miltenyi Biotec). Thereafter, RNA was obtained from the isolated CD4^+ cells and cDNA was synthesized from total RNA (3 μg) as described above. GATA-3, T-bet and GAPDH (housekeeping control) transcript abundance was evaluated by QPCR using Power SYBR green PCR Master Mix (Applied Biosystems, Foster City, Calif.), GAPDH primers listed above and the following GATA3 and T-bet primers: GATA3, Forward: […] (SEQ ID NO: 14); GATA3, Reverse: ACACCTGGCTCCCGTGGT (SEQ ID NO: 15); T-bet, Forward: […] (SEQ ID NO: 16); T-bet, Reverse: […] (SEQ ID NO: 17). PCR and transcript abundance analysis was performed as described above. GATA-3 and T-bet expression in purified CD4^+ cells from SCR shRNA and Gal1 shRNA HD-MY-Z/T-cell cocultures were then compared.

[7] = test system: Gal1; assay: RNA-interference mediated Gal1 knock-down in HD-MY-Z cells (immunoblot); format: cell-based, human; details: HD-MY-Z cells transduced with pSIREN-RetroQ vector; FIG. 3A
Excerpt: DLBCL and cHL cell lines were maintained as previously described (Mathas et al. (2002) Embo J 21, 4104-4113; Polo et al. (2007) Proc Natl Acad Sci USA 104, 3207-3212). Cells were lysed, size-fractionated on NuPAGE Novex 4-12% Bis-Tris Gels (Invitrogen, Carlsbad, Calif.), and transferred to PVDF membranes (Millipore Corp., Bedford, Mass.). Membranes were immunostained with purified Gal1 rabbit IgG (Rubinstein et al. (2004) Cancer Cell 5, 241-251) and HRP-conjugated donkey anti-rabbit antibody (GE Healthcare, Piscataway, N.J.) and developed using a chemiluminescent method (ECL, GE Healthcare).
Gal1 specific siRNA was designed using siRNA Selection Program (Yuan et al. (2004) Nucleic Acids Res 32, W130-134) (available on the World Wide Web at jura.wi.mit.edu/bioc/siRNAext/), synthesized as single-stranded DNA oligonucleotides by Integrated DNA Technologies (IDT, Inc., Coralville, Iowa) and annealed. […]

[8] = test system: HD-MY-Z cells; assay: Proliferation rate and viability of transduced HD-MY-Z cells; format: cell-based, human; details: after Gal1 knockdown
Excerpt: Gal1 specific siRNA was designed using siRNA Selection Program (Yuan et al. (2004) Nucleic Acids Res 32, W130-134) (available on the World Wide Web at jura.wi.mit.edu/bioc/siRNAext/), synthesized as single-stranded DNA oligonucleotides by Integrated DNA Technologies (IDT, Inc., Coralville, Iowa) and annealed. Gal1-specific oligonucleotide (Gal1 RNAi, […] (SEQ ID NO: 12) or scrambled oligonucleotide (SCR, […] (SEQ ID NO: 13) were ligated into the linearized pSIREN-RetroQ retroviral vector (BD Clontech, Mountain View, Calif.). Generation of recombinant retrovirus and infection of HD-MY-Z cells was performed as previously described (Juszczynski et al. (2006) Mol Cell Biol 26, 5348-5359). After infection, cells were subjected to puromycin selection (0.5 μg/mL) and subcloning by limiting dilution. Thereafter, whole-cell extracts of obtained subclones were prepared and screened for Gal1 expression by immunoblotting as described above.

Molecule: rGal1: recombinant Gal1 (galectin-1), a glycan-binding protein
- apoptosis of total activated T cells [1]: induced apoptosis
- IL-4 in supernatants [2]: significantly higher amounts
- IL-5 in supernatants [2]: significantly higher amounts
- IL-10 in supernatants [2]: significantly higher amounts
- IL-13 in supernatants [2]: significantly higher amounts
- CD4+ CD25high FOXP3+ Treg population [3]: significantly increased
- cytokine profile ([4]; murine models of Th1-driven chronic inflammatory and autoimmune disorders): skewed towards Th2 cytokine profiles
- Th1-dependent responses ([4]; listed as Gal1): dramatically suppressed
- Th1-dependent responses ([4]; listed as recombinant Gal1): suppressed
- T-cell susceptibility to activation-induced cell death ([4]; murine models of chronic inflammatory diseases): increased

Molecule: Gal1 shRNA: pSIREN-RetroQ retroviral vector encoding Gal1-specific shRNA; target sequence GCTGCCAGATGGATACGAA (SEQ ID NO: 1) (DNA GATCCGCTGCCAGATGGATACGAATTCAAGAGATTCGTATCCATCTGGCAGCTTTTTTG)
- viable Th (CD4+) T cells [5]: significantly fewer viable total (CD3^+) and Th (CD4^+) T cells in control (SCR) HD-MY-Z co-cultures than in co-cultures of HD-MY-Z cells with Gal1 knockdown
- viable total (CD3+) T cells [5]: significantly fewer viable total (CD3^+) and Th (CD4^+) T cells in control (SCR) HD-MY-Z co-cultures than in co-cultures of HD-MY-Z cells with Gal1 knockdown
- expression of GATA-3 (Th2-specific transcription factor) [6]: higher expression of GATA-3 than CD4^+ T cells from Gal1 shRNA HD-MY-Z co-cultures
- expression of T-bet (Th1-specific transcription factor) [6]: control (SCR) HD-MY-Z cells exhibited significantly lower expression of T-bet
- Gal1 protein expression [7]: can be blocked
- proliferation rate or viability of transduced HD-MY-Z cells [8]: did not alter

Molecule: OC[C@H]1O[C@@H](S[C@@H]2O[C@H](CO)[C@H](O)[C@H](O)[C@H]2O)[C@H](O)[C@@H](O)[C@H]1O [TDG, thiodigalactoside, reference compound]
- apoptosis of total activated T cells [1]: completely blocked rGal1-induced apoptosis
- IL-4 in supernatants [2]: specifically blocked this effect
- IL-5 in supernatants [2]: specifically blocked this effect
- IL-10 in supernatants [2]: specifically blocked this effect
- IL-13 in supernatants [2]: specifically blocked this effect
- CD4+ CD25high FOXP3+ Treg population [3]: completely blocked this effect
